We go through 10 compounds from US20080234262A1 (Wyeth, priority 2007, published 2008).

Molecules are shown by their SMILES.

By IC50 is commonly meant the concentration that gives 50% inhibition. Higher therefore signals lower potency.

The experiment concerns breast line MDA468. The experiment in a line: In vitro cell culture growth assay (MTS), MDA468. It is filed as cell-based, human. Conditions: Homo sapiens, 72 h, MDA468 cells, three days after drug treatment. The method, then: Human tumor cell lines used include prostate lines LNCap and PC3MM2, breast lines MDA468, MCF7, renal line HTB44 (A498), colon line HCT116, and ovarian line OVCAR3. Cells were plated in 96-well culture plates. One day following plating, the inhibitors were added to cells. Three days after drug treatment, viable cell densities were determined by metabolic conversion (by viable cells) of the dye MTS, a well established cell proliferation assay. The assays were performed using an assay kit purchased from Promega Corp. (Madison, Wis.) following the protocol supplied with the kit. The MTS assay results were read in a 96-well plate reader by measuring absorbance at 490 nm. The effect of each treatment was calculated as percent of control growth relative to the vehicle-treated cells grown in the same culture plate.
`COC(=O)N1CCC(n2ncc3c(N4CCOCC4)nc(-c4ccc(N)cc4)nc32)CC1` [Compound 741, methyl 4-[6-(4-aminophenyl)-4-morpholin-4-yl-1H-pyrazolo[3,4-d]pyrimidin-1-yl]piperidine-1-carboxylate] displayed an IC50 of 12000 nM.

`CNC(=O)Nc1ccc(-c2nc(N3CCOCC3)c3cnn(C4CCN(C(=O)OC(C)C)CC4)c3n2)cc1` [Compound 752, isopropyl 4-(6-{4-[(methylcarbamoyl)amino]phenyl}-4-morpholin-4-yl-1H-pyrazolo[3,4-d]pyrimidin-1-yl)piperidine-1-carboxylate] returned an IC50 of 53 nM. For `CC(C)(C)OC(=O)N1CCC(n2ncc3c(N4CCOCC4)nc(-c4ccc(NC(=O)NCCF)cc4)nc32)CC1` [Compound 765, tert-butyl 4-[6-(4-{[(2-fluoroethyl)carbamoyl]amino}phenyl)-4-morpholin-4-yl-1H-pyrazolo[3,4-d]pyrimidin-1-yl]piperidine-1-carboxylate] the value was 360 nM; for `CC(C)(C)OC(=O)N1CCC(n2ncc3c(N4CCOCC4)nc(-c4ccc(NC(=O)NC5CC5)cc4)nc32)CC1` [Compound 767, tert-butyl 4-(6-{4-[(cyclopropylcarbamoyl)amino]phenyl}-4-morpholin-4-yl-1H-pyrazolo[3,4-d]pyrimidin-1-yl)piperidine-1-carboxylate], 700 nM; for `CC(C)OC(=O)N1CCC(n2ncc3c(N4CCOCC4)nc(-c4ccc(NC(=O)NCCF)cc4)nc32)CC1` [Compound 833, isopropyl 4-[6-(4-{[(2-fluoroethyl)carbamoyl]amino}phenyl)-4-morpholin-4-yl-1H-pyrazolo[3,4-d]pyrimidin-1-yl]piperidine-1-carboxylate], 250 nM.

Consider `CC(C)OC(=O)N1CCC(n2ncc3c(N4CCOCC4)nc(-c4ccc(NC(=O)NC5CC5)cc4)nc32)CC1` [Compound 835, isopropyl 4-(6-{4-[(cyclopropylcarbamoyl)amino]phenyl}-4-morpholin-4-yl-1H-pyrazolo[3,4-d]pyrimidin-1-yl)piperidine-1-carboxylate], for which the IC50 was found to be 320 nM. `COC(=O)N1CCC(n2ncc3c(N4CCOCC4)nc(-c4ccc(NC(=O)Nc5ccc(N6CCN(C)CC6)cc5)cc4)nc32)CC1` [Compound 910, methyl 4-{6-[4-({[4-(4-methylpiperazin-1-yl)phenyl]carbamoyl}amino)phenyl]-4-morpholin-4-yl-1H-pyrazolo[3,4-d]pyrimidin-1-yl}piperidine-1-carboxylate] displayed an IC50 of 0.8 nM. The value for `COC(=O)N1CCC(n2ncc3c(N4CCOCC4)nc(-c4ccc(NC(=O)Nc5ccc(CCO)cc5)cc4)nc32)CC1` [Compound 913, methyl 4-{6-[4-({[4-(2-hydroxyethyl)phenyl]carbamoyl}amino)phenyl]-4-morpholin-4-yl-1H-pyrazolo[3,4-d]pyrimidin-1-yl}piperidine-1-carboxylate] was 1.3 nM; that for `COC(=O)N1CCC(n2ncc3c(N4CCOCC4)nc(-c4ccc(NC(=O)Nc5ccc(CCN6CCCC6)cc5)cc4)nc32)CC1` [Compound 914, methyl 4-{4-morpholin-4-yl-6-[4-({[4-(2-pyrrolidin-1-ylethyl)phenyl]carbamoyl}amino)phenyl]-1H-pyrazolo[3,4-d]pyrimidin-1-yl}piperidine-1-carboxylate] was 20 nM; that for `COC(=O)N1CCC(n2ncc3c(N4CCOCC4)nc(-c4ccc(NC(=O)Nc5ccc(CCN6CCN(C)CC6)cc5)cc4)nc32)CC1` [Compound 917, methyl 4-(6-{4-[({4-[2-(4-methylpiperazin-1-yl)ethyl]phenyl}carbamoyl)amino]phenyl}-4-morpholin-4-yl-1H-pyrazolo[3,4-d]pyrimidin-1-yl)piperidine-1-carboxylate] was 60 nM.
